# Assay results: patent US12516060B2, “Solid freebase forms of 5-chloro-2-(4-((2-hydroxy-2-methylpropyl)amino)pyrido[3,4-d]pyridazin-1-yl)phenol for inhibiting NLRP3 and uses thereof” (Ventus Therapeutics U.S., Inc., priority 2023, dated 2026)
# Legend:
# Assay type in all cases: physicochemical
# [1] = Drying of Patterns overnight at 50° C.; conditions: XRPD
# Protocol: For fast-cooling crystallization, Form I freebase was obtained from methanol (MeOH), MeOH:water (9:1 vol.), ethanol (EtOH):water (9:1 vol.), ethyl acetate (EtOAc):N,N-dimethylformamide (DMF) (9:1 vol.), and EtOH:tetrahydrofuran (THF) (3:7 vol.). Form II freebase (Example 3) was obtained from THF, and from acetonitrile:dimethylformamide (DMF) (9:1 vol.) as a mixture with Form I freebase. Pattern C (Example 7) was obtained from isopropanol (IPA):water (9:1 vol.) at −20° C.
# Pattern B (Example 7) was obtained from dimethylacetamide (DMAc)/methyl isobutyl ketone (MIBK) after standing overnight at −20° C. […] A mixture of Form III freebase (Example 4) (major) and Form I freebase (minor) was obtained from the direct addition of water into dimethylsulfoxide (DMSO). The ratio of the two patterns was unchanged after drying in vacuo at 50° C. for 4 h. Reverse addition (DMSO/water) gave Form III freebase (Example 4) alone, with no evidence of Form I freebase. Reverse antisolvent addition (dimethylacetamide (DMAc)/water or N-methylpyrrolidone (NMP)/water) gave Form IV freebase (Example 5).
# Pattern B freebase was obtained from dimethylacetamide (DMAc)/methyl isobutyl ketone (MIBK) after standing overnight at −20° C. See Example 2, Table 2B. […] The XRPD of Pattern B freebase, taken before drying, is provided in FIG. 7C, and the corresponding signal list is provided in Table 7B.
# Pattern C freebase was obtained from isopropanol (IPA):water (9:1 vol.) at −20° C.
# [2] = Dynamic Vapor Sorption (DVS); conditions: for water uptake, weight gain between 5-95% relative humidity (RH) / hygroscopicity: DVS; for DVS mass change 5-95% RH (wt. %) / water uptake, weight gain between 5-95% relative humidity (RH): 5-95% RH; for hygroscopicity: all adsorbed water lost during the drying cycle; for XRPD pre- and post-DVS: form stability after DVS cycle
# Protocol: DVS was performed using TA Instruments Q5000SA. The sample (5-15 mg) was loaded into a metallic quartz sample pan, suspended from a microbalance, and exposed to a humidified stream of nitrogen gas. Weight changes were relative to a matching empty reference pan opposite the sample, suspended from the microbalance. The sample was held for a minimum of 10 min at each level and only progressed to the next humidity level if there was <0.002% change in weight between measurements (interval: 5 s) or 45 min had elapsed (for 5-65% RH) or 2 h had elapsed (for 80 and 95% RH). Mass change by DVS is related to hygroscopicity.
# [3] = Solid form stability studies, 75% RH at 40° C. for one week (XRPD and HPLC); conditions: for XRPD (tested material): 75% ± 5% RH at 40° C. ± 2° C. for 1 week; for Purity % a/a (tested material) / Purity % a/a (input material): HPLC; for Purity % a/a (tested material): after 75% ± 5% RH at 40° C. ± 2° C. for 1 week; for Purity % a/a (input material): before stability test
# Protocol: Solid form stability studies were performed on Form I-V freebase forms by weighing approximately 10-15 mg of the crystalline material into 4 mL vials and covering with a lab grade task wipe (Kimwipe). These vials were placed inside a stability chamber set at 75%±5% relative humidity (RH) at 40° C.±2° C., where they were left for one week (7 full days). The retrieved material was then analyzed by XRPD and HPLC. In each case, the initial material and tested material were identical by XRPD, with the exception of Form I freebase, where an extra peak at 5.8 °2θ in the initial material was absent after the stability test. HPLC purities of the tested material were essentially unchanged from those of the initial material.
# [4] = First set of competitive slurry experiments (Form I-IV freebases); conditions: for relative stability of Forms I-IV freebases: five solvent systems; for evidence of form by XRPD after 2 days: slurries seeded with Forms I-IV, RT or 50° C., all experiments
# Protocol: Competitive slurry experiments were carried out with Form I-IV freebases at two temperatures, room temperature (RT) and 50° C., in five solvents/solvent systems. First, saturated solutions of Form I freebase (Example 2) were prepared at each temperature in each solvent system. To make the saturated solutions, Form I freebase was added to 2 mL of solvent already stirring at the desired temperature, either room temperature (RT) or at 50° C. Once a thin slurry was observed, the samples were left to equilibrate overnight. After stirring overnight, the stir bars were removed to allow the solids to settle, and the supernatant was pipetted into clean 4 mL vials containing a 10 mm stir bar.
# The supernatant was then left to stir for an additional 15 min prior to adding seeds (approximately 5 mg per form, pre-weighed) of the following patterns: Form I freebase (Example 2), Form II freebase (Example 3), Form III freebase (Example 4) and Form IV freebase (Example 5). Samples of the slurries were plated for XRPD analysis immediately after seeding. The slurries were then sampled again after 2 days and 7 days at the respective temperatures.
# [5] = Dry and solvent-drop milling of Form I freebase; conditions: 16 s at 3500 rpm
# Protocol: Dry and solvent-drop milling on pure-phase Form I freebase was performed using a ball mill with ¼ inch stainless steel ball as milling media. Approximately 30-35 mg of Form I freebase was weighed into a milling capsule and 1 vol. of solvent (solvent drop) was added. The milling was carried out for 16 s at 3500 rpm. Overall, no new patterns were identified from dry and solvent-drop milling experiments. […] Loss of crystallinity was most evident in the dry-milled sample, though Form I freebase pattern was still readily distinguished.
# [6] = Thermal treatment of solid forms; conditions: held 10 min; for XRPD after thermal treatment to 210° C.: 30 to 210° C. at 10° C./min, cooled to 30° C.
# Protocol: Thermal treatment of the Amorphous freebase was carried out. 10 mg of amorphous Compound 1 freebase was weighed into a 100 μL DSC pan. The pan was heated at a rate of 10° C./min to 200° C., held at 200° C. for 10 min, then cooled at a rate of 20° C./min to 25° C. Data not shown. The resulting solids were brittle and dark-orange. The solids sampled for XRPD, NMR, and HPLC purity analysis indicated decomposition of Compound 1 freebase rather than maintaining the amorphous state or conversion to a crystalline form.
# Thermal treatment of Form III freebase to 210° C. was carried out. Approximately 5 mg of Form III freebase was weighed into a DSC pan. The sample was heated from 30° C. to 210° C. at a rate of 10° C./min, held at 210° C. for 10 min, then cooled from 210° C. to 30° C. at a rate of 20° C./min. […] Data not shown. The peaks at 16.2 °2θ and 20.1 °2θ may have been due to trace amounts of Form II freebase (Example 3).
# Thermal treatment of Form IV freebase to 210° C. was carried out. Approximately 5 mg of Form IV freebase was weighed into a DSC pan. The sample was heated from 30° C. to 210° C. at a rate of 10° C./min, held at 210° C. for 10 min, then cooled from 210° C. to 30° C. at a rate of 20° C./min.
# [7] = Solvent addition to Amorphous freebase
DVS mass change 5-95% RH (wt. %) [2] [wt. %],"water uptake, weight gain between 5-95% relative humidity (RH) [2]",hygroscopicity [2],XRPD pre- and post-DVS [2],XRPD (tested material) [3],Purity % a/a (tested material) [3] [% a/a],Purity % a/a (input material) [3] [% a/a],relative stability of Forms I-IV freebases ([4]; RT and 50° C.),Compound,also measured
–,–,–,–,–,–,–,–,"CC(C)(O)CNc1nnc(-c2ccc(Cl)cc2O)c2ccncc12 [Pattern C freebase, 5-chloro-2-(4-((2-hydroxy-2-methylpropyl)amino)pyrido[3,4-d]pyridazin-1-yl)phenol]",form after drying overnight at 50° C. [1]: converted to the low-crystalline version of Form I freebase (Pattern A freebase); form after drying overnight at 50° C. ([1]; listed as Pattern C): converted to Pattern A
0.5,0.5%,"slightly, hygroscopic",remain unchanged,Form I,97.94,98.06,more stable,"CC(C)(O)CNc1nnc(-c2ccc(Cl)cc2O)c2ccncc12 [Form I freebase, 5-chloro-2-(4-((2-hydroxy-2-methylpropyl)amino)pyrido[3,4-d]pyridazin-1-yl)phenol]",XRPD after milling ([5]; None (dry)): Form I; XRPD after dry and solvent-drop milling (overall) ([5]; ball mill): remained largely unchanged; XRPD after milling ([5]; solvent drop 1 vol. Acetone): Form I; XRPD after milling ([5]; solvent drop 1 vol. Isopropanol:water (9:1 vol.)): Form I; XRPD after milling ([5]; solvent drop 1 vol. Methanol (MeOH)): Form I; XRPD after milling ([5]; solvent drop 1 vol. Tetrahydrofuran (THF)): Form I; XRPD after milling ([5]; solvent drop 1 vol. acetonitrile:dimethylformamide (8:2 vol.)): Form I
1.59,about 1.59%,"slightly, hygroscopic",remained unchanged,Form IV,98.53,99.48,converted rapidly,"CC(C)(O)CNc1nnc(-c2ccc(Cl)cc2O)c2ccncc12 [Form IV freebase, 5-chloro-2-(4-((2-hydroxy-2-methylpropyl)amino)pyrido[3,4-d]pyridazin-1-yl)phenol]",evidence of form by XRPD after 2 days [4]: no evidence; XRPD after thermal treatment to 210° C. [6]: conversion to Form I freebase
0.24,about 0.24%,"slightly, hygroscopic",remained unchanged,Form III,99.60,99.54,converted rapidly,"CC(C)(O)CNc1nnc(-c2ccc(Cl)cc2O)c2ccncc12 [Form III freebase, 5-chloro-2-(4-((2-hydroxy-2-methylpropyl)amino)pyrido[3,4-d]pyridazin-1-yl)phenol]",evidence of form by XRPD after 2 days [4]: no evidence; XRPD after thermal treatment to 210° C. [6]: conversion to Form I freebase
1.03,about 1.03%,"slightly, hygroscopic",remained unchanged,Form II,98.12,98.12,more stable,"CC(C)(O)CNc1nnc(-c2ccc(Cl)cc2O)c2ccncc12 [Form II freebase, 5-chloro-2-(4-((2-hydroxy-2-methylpropyl)amino)pyrido[3,4-d]pyridazin-1-yl)phenol]","form favored after 7 days ([4]; RT and 50° C., 7 days): favored in most solvent systems; form favored, Form II vs Form I ([4]; overall conclusion of first set): favored over Form I freebase in all solvent systems except acetone:water (7:3 vol.)"
–,–,–,–,–,–,–,–,"CC(C)(O)CNc1nnc(-c2ccc(Cl)cc2O)c2ccncc12 [Pattern B freebase, 5-chloro-2-(4-((2-hydroxy-2-methylpropyl)amino)pyrido[3,4-d]pyridazin-1-yl)phenol]",form after drying overnight at 50° C. [1]: conversion to Form I freebase; form after drying overnight at 50° C. ([1]; listed as Pattern B): conversion to Form I freebase
–,–,–,–,–,–,–,–,"CC(C)(O)CNc1nnc(-c2ccc(Cl)cc2O)c2ccncc12 [Amorphous freebase, 5-chloro-2-(4-((2-hydroxy-2-methylpropyl)amino)pyrido[3,4-d]pyridazin-1-yl)phenol]","form conversion upon addition of solvent ([7]; 5 vol. acetone): Rapid conversion of the Amorphous freebase to Form I freebase; form conversion upon addition of solvent ([7]; toluene): rapid conversion of the Amorphous freebase to Form II freebase; XRPD, NMR, and HPLC purity analysis after thermal treatment ([6]; heated 10° C./min to 200° C., cooled to 25° C.): decomposition"
